# In PMC8330742, “New benzothieno[2,3-c]pyridines as non-steroidal CYP17 inhibitors: design, synthesis, anticancer screening, apoptosis induction, and in silico ADME profile studies” (Journal of Enzyme Inhibition and Medicinal Chemistry, 2021):
# Experiments:
# [1] = tested on: SN12C; assay: NCI-60 SRB screen; format: cell-based, human; conditions: Homo sapiens, SN12C; single dose 10^−5 M; SN 12 C, Renal cancer; read-out: Growth inhibition (%)
# [2] = tested on: CAKI-1; assay: NCI-60 SRB screen; format: cell-based, human; conditions: Homo sapiens; single dose 10^−5 M; CAKI-1, Renal cancer; read-out: Growth inhibition (%)
# [3] = tested on: A549/ATCC; assay: NCI-60 SRB screen; format: cell-based, human; conditions: Homo sapiens, single dose 10^−5 M, Non-small cell lung carcinoma, read-out: Growth inhibition (%)
# [4] = tested on: SW-620; assay: NCI-60 SRB screen; format: cell-based; conditions: Homo sapiens; single dose 10^−5 M; SW-620, Colon cancer; read-out: Growth inhibition (%)
# [5] = tested on: NCI-H23; assay: NCI-60 SRB screen; format: cell-based, human; conditions: Homo sapiens; single dose 10^−5 M; NCI-H23, Non-small cell lung carcinoma; read-out: Growth inhibition (%)
# [6] = tested on: SK-MEL-28; assay: NCI-60 SRB screen; format: cell-based; conditions: Homo sapiens; single dose 10^−5 M; SK-MEL-28, Melanoma; read-out: Growth inhibition (%)
# [7] = tested on: 786-0; assay: NCI-60 SRB screen; format: cell-based; conditions: Homo sapiens; single dose 10^−5 M; 786-0, Renal cancer; read-out: Growth inhibition (%)
# [8] = tested on: HCT-116; assay: NCI-60 SRB screen; format: cell-based, human; conditions: Homo sapiens; single dose 10^−5 M; HCT-116, Colon cancer; read-out: Growth inhibition (%)
# [9] = tested on: CCRF-CEM; assay: NCI-60 SRB screen; format: cell-based; conditions: Homo sapiens, single dose 10^−5 M, Leukaemia, read-out: Growth inhibition (%)
# [10] = tested on: IGROV1; assay: NCI-60 SRB screen; format: cell-based, human; conditions: Homo sapiens, IGROV-1; single dose 10^−5 M; IGROV1, Ovarian cancer; read-out: Growth inhibition (%)
# [11] = tested on: SK-MEL-5; assay: NCI-60 SRB screen; format: cell-based, human; conditions: Homo sapiens; single dose 10^−5 M; SK-MEL-5, Melanoma; read-out: Growth inhibition (%)
# [12] = tested on: HOP-92; assay: NCI-60 SRB screen; format: cell-based, human; conditions: Homo sapiens; single dose 10^−5 M; HOP-92, Non-small cell lung carcinoma; read-out: Growth inhibition (%)
# [13] = tested on: KM12; assay: NCI-60 SRB screen; format: cell-based, human; conditions: Homo sapiens; single dose 10^−5 M; KM12, Colon cancer; read-out: Growth inhibition (%)
# [14] = tested on: OVCAR-4; assay: NCI-60 SRB screen; format: cell-based, human; conditions: Homo sapiens; single dose 10^−5 M; OVCAR-4, Ovarian cancer; read-out: Growth inhibition (%)
# [15] = tested on: NCI/ADR-RES; assay: NCI-60 SRB screen; format: cell-based, human; conditions: Homo sapiens, single dose 10^−5 M, Ovarian cancer, read-out: Growth inhibition (%)
# [16] = tested on: UO-31; assay: NCI-60 SRB screen; format: cell-based, human; conditions: Homo sapiens; single dose 10^−5 M; UO-31, Renal cancer; read-out: Growth inhibition (%)
# [17] = tested on: RXF 393; assay: NCI-60 SRB screen; format: cell-based, human; conditions: Homo sapiens; single dose 10^−5 M; RXF 393, Renal cancer; read-out: Growth inhibition (%)
# [18] = tested on: OVCAR-3; assay: NCI-60 SRB screen; format: cell-based, human; conditions: Homo sapiens; single dose 10^−5 M; OVCAR-3, Ovarian cancer; read-out: Growth inhibition (%)
# [19] = tested on: HCT-15; assay: NCI-60 SRB screen; format: cell-based, human; conditions: Homo sapiens; single dose 10^−5 M; HCT-15, Colon cancer; read-out: Growth inhibition (%)
# [20] = tested on: MOLT-4; assay: NCI-60 SRB screen; format: cell-based; conditions: Homo sapiens; single dose 10^−5 M; MOLT-4, Leukaemia; read-out: Growth inhibition (%)
# [21] = tested on: OVCAR-8; assay: NCI-60 SRB screen; format: cell-based, human; conditions: Homo sapiens; single dose 10^−5 M; OVCAR-8, Ovarian cancer; read-out: Growth inhibition (%)
# [22] = tested on: HL-60(TB); assay: NCI-60 SRB screen; format: cell-based, human; conditions: Homo sapiens; single dose 10^−5 M; HL-60(TB), Leukaemia; read-out: Growth inhibition (%)
# [23] = tested on: MALME-3M; assay: NCI-60 SRB screen; format: cell-based, human; conditions: Homo sapiens, single dose 10^−5 M, Melanoma, read-out: Growth inhibition (%)
# [24] = tested on: NCI-H226; assay: NCI-60 SRB screen; format: cell-based, human; conditions: Homo sapiens; single dose 10^−5 M; NCI-H226, Non-small cell lung carcinoma; read-out: Growth inhibition (%)
# [25] = tested on: SK-MEL-2; assay: NCI-60 SRB screen; format: cell-based, human; conditions: Homo sapiens; single dose 10^−5 M; SK-MEL-2, Melanoma; read-out: Growth inhibition (%)
# [26] = tested on: NCI-H460; assay: NCI-60 SRB screen; format: cell-based, human; conditions: Homo sapiens; single dose 10^−5 M; NCI-H460, Non-small cell lung carcinoma; read-out: Growth inhibition (%)
# [27] = tested on: K-562; assay: NCI-60 SRB screen; format: cell-based, human; conditions: Homo sapiens, K562; single dose 10^−5 M; K-562, Leukaemia; read-out: Growth inhibition (%)
# [28] = tested on: NCI-H322M; assay: NCI-60 SRB screen; format: cell-based, human; conditions: Homo sapiens, single dose 10^−5 M, Non-small cell lung carcinoma, read-out: Growth inhibition (%)
# [29] = tested on: HCC-2998; assay: NCI-60 SRB screen; format: cell-based, human; conditions: Homo sapiens; single dose 10^−5 M; HCC-2998, Colon cancer; read-out: Growth inhibition (%)
# [30] = tested on: panel of 60 cancer cell lines; assay: NCI-60 SRB screen, mean or range over the panel; format: cell-based, human; conditions: Homo sapiens; mean over the cell lines; single dose 10^−5 M; read-out: Mean growth inhibition (%)
# [31] = tested on: HOP-62; assay: NCI-60 SRB screen; format: cell-based, human; conditions: Homo sapiens; single dose 10^−5 M; HOP-62, Non-small cell lung carcinoma; read-out: Growth inhibition (%)
# [32] = tested on: MDA-MB-435; assay: NCI-60 SRB screen; format: cell-based; conditions: Homo sapiens, MDA-MB-435, read-out: Growth inhibition (%)
# [33] = tested on: SF-268; assay: NCI-60 SRB screen; format: cell-based, human; conditions: Homo sapiens; single dose 10^−5 M; SF-268, CNS cancer; read-out: Growth inhibition (%)
# [34] = tested on: EKVX; assay: NCI-60 SRB screen; format: cell-based, human; conditions: Homo sapiens, single dose 10^−5 M, Non-small cell lung carcinoma, read-out: Growth inhibition (%)
# [35] = tested on: HT-29; assay: NCI-60 SRB screen; format: cell-based; conditions: Homo sapiens; single dose 10^−5 M; HT-29, Colon cancer; read-out: Growth inhibition (%)
# [36] = tested on: UACC-257; assay: NCI-60 SRB screen; format: cell-based, human; conditions: Homo sapiens; single dose 10^−5 M; UACC-257, Melanoma; read-out: Growth inhibition (%)
# [37] = tested on: LOX IMVI; assay: NCI-60 SRB screen; format: cell-based, human; conditions: Homo sapiens, single dose 10^−5 M, Melanoma, read-out: Growth inhibition (%)
# [38] = tested on: TK-10; assay: NCI-60 SRB screen; format: cell-based, human; conditions: Homo sapiens; single dose 10^−5 M; TK-10, Renal cancer; read-out: Growth inhibition (%)
# [39] = tested on: SF-295; assay: NCI-60 SRB screen; format: cell-based, human; conditions: Homo sapiens; single dose 10^−5 M; SF-295, CNS cancer; read-out: Growth inhibition (%)
# [40] = tested on: UACC-62; assay: NCI-60 SRB screen; format: cell-based, human; conditions: Homo sapiens; single dose 10^−5 M; UACC-62, Melanoma; read-out: Growth inhibition (%)
# [41] = tested on: SR; assay: NCI-60 SRB screen; format: cell-based; conditions: Homo sapiens, single dose 10^−5 M, Leukaemia, read-out: Growth inhibition (%)
# [42] = tested on: NCI-H522; assay: NCI-60 SRB screen; format: cell-based, human; conditions: Homo sapiens; single dose 10^−5 M; NCI-H522, Non-small cell lung carcinoma; read-out: Growth inhibition (%)
# [43] = tested on: M14; assay: NCI-60 SRB screen; format: cell-based, human; conditions: Homo sapiens; single dose 10^−5 M; M14, Melanoma; read-out: Growth inhibition (%)
# [44] = tested on: ACHN; assay: NCI-60 SRB screen; format: cell-based; conditions: Homo sapiens, single dose 10^−5 M, Renal cancer, read-out: Growth inhibition (%)
# [45] = tested on: COLO 205; assay: NCI-60 SRB screen; format: cell-based, human; conditions: Homo sapiens; single dose 10^−5 M; COLO 205, Colon cancer; read-out: Growth inhibition (%)
smiles,measurement,setting,value
"N#CC1=C(Cl)NC(c2cccc([N+](=O)[O-])c2)c2sc3c(F)cccc3c21 (stereo not drawn) [Compound 7b, 3-Chloro-4-cyano-8-fluoro-1-(3-nitrophenyl)-1,2-dihydro[1]benzothieno [2,3-c]pyridine]",inhibition at 10 µM,[1],4.43%
same,inhibition at 10 µM,[2],19.8%
same,inhibition at 10 µM,[3],-10.1%
same,inhibition at 10 µM,[4],3.78%
same,inhibition at 10 µM,[5],4.25%
same,inhibition at 10 µM,[6],-11.2%
same,inhibition at 10 µM,[7],-13.5%
same,inhibition at 10 µM,[8],11.7%
same,inhibition at 10 µM,[9],3.22%
same,inhibition at 10 µM,[10],15.6%
same,inhibition at 10 µM,[11],-20.1%
same,inhibition at 10 µM,[12],10.4%
same,inhibition at 10 µM,[13],-0.12%
same,inhibition at 10 µM,[14],-3.81%
same,inhibition at 10 µM,[15],1.73%
same,inhibition at 10 µM,[16],32.5%
same,inhibition at 10 µM,[17],-15.8%
same,inhibition at 10 µM,[18],-1.67%
same,inhibition at 10 µM,[19],-7.25%
same,inhibition at 10 µM,[20],7.93%
same,inhibition at 10 µM,[21],-4.49%
same,inhibition at 10 µM,[22],1.47%
same,inhibition at 10 µM,[23],-2.31%
same,inhibition at 10 µM,[24],9.35%
same,inhibition at 10 µM,[25],-2.07%
same,inhibition at 10 µM,[26],2.14%
same,inhibition at 10 µM,[27],8.8%
same,inhibition at 10 µM,[28],-3.17%
same,inhibition at 10 µM,[29],-18.2%
same,inhibition at 10 µM,[30],2.14%
same,inhibition at 10 µM,[31],9.67%
same,inhibition at 10 µM,[32],-8.18%
same,inhibition at 10 µM,[33],6.82%
same,inhibition at 10 µM,[34],-1.36%
same,inhibition at 10 µM,[35],-3.29%
same,inhibition at 10 µM,[36],-9.77%
same,inhibition at 10 µM,[37],1.46%
same,inhibition at 10 µM,[38],-53.8%
same,inhibition at 10 µM,[39],-4.69%
same,inhibition at 10 µM,[40],8.84%
same,inhibition at 10 µM,[41],15.9%
same,inhibition at 10 µM,[42],-1.38%
same,inhibition at 10 µM,[43],-5.17%
same,inhibition at 10 µM,[44],4.44%
same,inhibition at 10 µM,[45],-14.6%
